From patent US20240336629A1, “Tricyclic Derivatives Useful As PARP7 Inhibitors” (JACOBIO PHARMACEUTICALS CO., LTD., priority 2021, published 2024)
Read-outs that look alike come from different tables or passages of the source.

What was measured:
PARP7 enzyme = PARP7 enzyme (Homo sapiens (Human), UniProt Q7Z3E1); experiment: PARP7 enzymatic experiment (HTRF assay); format: biochemical; conditions: 4PL fit
[1] = test system: lung cancer cell line H1373 (high expression of PARP7); experiment: Lung cancer cell proliferation inhibition experiment (CTG method); format: cell-based; conditions: H1373 cells, 144 hrs incubation, Cell Titer Glo
[2] = Mouse pharmacokinetic study; format: in vivo; conditions: Balb/c mouse; for clearance / Vd: iv; for Vd: read-out: Vss; for bioavailability: read-out: Oral BA (F %)
[3] = plasma, po, 100 mg/kg p.o. vs 3 mg/kg i.v.
[4] = plasma, po, single 100 mg/kg, p.o., read-out: Cmax
[5] = plasma, oral, 100 mg/kg p.o. vs 3 mg/kg i.v.

Sequence of PARP7 enzyme (Q7Z3E1 456-657): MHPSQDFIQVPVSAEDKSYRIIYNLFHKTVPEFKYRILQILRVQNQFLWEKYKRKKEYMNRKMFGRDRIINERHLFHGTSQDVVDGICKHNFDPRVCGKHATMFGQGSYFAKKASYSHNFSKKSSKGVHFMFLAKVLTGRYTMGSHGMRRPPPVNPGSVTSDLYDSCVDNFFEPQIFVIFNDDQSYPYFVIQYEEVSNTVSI

| SMILES | IC50 (PARP7 enzyme) | IC50 ([1]; Homo sapiens, NCI-H1373, 144 h) | pharmacokinetic properties (in words) [2] | clearance ([2]; plasma, single 3 mg/kg) | Vd ([2]; plasma, single 3 mg/kg, i.v.) | AUC(0-t) ([2]; plasma, po, single 100 mg/kg) | Cmax [2, 4] | other results |
| --- | --- | --- | --- | --- | --- | --- | --- | --- |
| C[C@@H](COCCC(=O)N1CCN2c3ncc(Cl)cc3N(C)C(=O)[C@@H]2C1)Nc1cn[nH]c(=O)c1C(F)(F)F (single isomer, unassigned) [Compound 20A] | 0.00151 µM | 0.0539 µM | good pharmacokinetic properties | – | – | – | – | – |
| CC(C)N1C(=O)[C@@H]2CN(C(=O)CCOC[C@H](C)Nc3cn[nH]c(=O)c3C(F)(F)F)CCN2c2ncc(C(F)(F)F)cc21 (single isomer, unassigned) [Compound 24A] | 0.00207 µM | – | good pharmacokinetic properties | – | – | – | – | – |
| C[C@@H](COCCC(=O)N1CCN2c3ncc(C(F)(F)F)cc3SCC[C@@H]2C1)Nc1cn[nH]c(=O)c1C(F)(F)F (single isomer, unassigned) [Compound 71A] | 0.00153 µM | – | good pharmacokinetic properties | – | – | – | – | IC50 [1]: 0.0139 µM |
| CCN1c2ncc(Cl)cc2OCC[C@@H]1CNC(=O)CCOC[C@@H](C)Oc1cn[nH]c(=O)c1C(F)(F)F (single isomer, unassigned) [Compound 84A] | 0.00101 µM | – | – | – | – | – | – | IC50 [1]: 0.0215 µM; Oral BA (F %) ([2]; 100 mg/kg p.o. vs 3 mg/kg i.v.): 106%; CL ([2]; single 3 mg/kg, i.v.): 41 mL/min/kg; Vss ([2]; single 3 mg/kg, i.v.): 0.5 L/kg; AUClast ([2]; single 100 mg/kg, p.o.): 43382 ng·h/mL; Cmax ([2]; single 100 mg/kg, p.o.): 15033 ng/mL |
| Cc1c(Cl)cnc2c1OCC[C@@H]1CN(C(=O)CCOC[C@H](C)Oc3cn[nH]c(=O)c3C(F)(F)F)CCN21 (single isomer, unassigned) [Compound 85A] | – | 0.0207 µM | – | 60 mL/min/kg | 0.5 L/kg | 86100 ng·h/mL | 24200 ng/mL | bioavailability [2, 3]: 301% |
| C[C@@H](COCCC(=O)N1CCN2c3nc(F)c(Cl)cc3N(C)C(=O)[C@@H]2C1)Nc1cn[nH]c(=O)c1C(F)(F)F [Compound 14A] | 0.0106 µM | – | good pharmacokinetic properties | – | – | – | – | – |
| Cc1c2n(c3ncc(C(F)(F)F)cc13)CCN(C(=O)CCOC[C@H](C)Oc1cn[nH]c(=O)c1C(F)(F)F)C2 [Compound 45] | – | 0.013 µM | good pharmacokinetic properties | – | – | – | – | – |
| C[C@@H](COCCC(=O)N1CCn2c(cc3cc(C(F)(F)F)cnc32)C1)Oc1cn[nH]c(=O)c1C(F)(F)F [Compound 47A] | – | 0.0609 µM | – | 16 mL/min/kg | 0.5 L/kg | 95200 ng·h/mL | 41100 ng/mL | bioavailability [2, 5]: 90% |
| C[C@@H](COCCC(=O)N1CCN2c3ncc(C(F)(F)F)cc3OC[C@@H]2C1)Oc1cn[nH]c(=O)c1C(F)(F)F [Compound 51] | – | – | – | 22 mL/min/kg | 0.5 L/kg | 91400 ng·h/mL | 38200 ng/mL | IC50 ([1]; Homo sapiens, NCI-H1373): 0.0346 µM; bioavailability [2, 5]: 121% |
| C[C@H](COCCC(=O)N1CCN2c3ncc(Cl)cc3N(C)C(=O)[C@@H]2C1)Nc1cn[nH]c(=O)c1C(F)(F)F [Compound 82A] | 0.000744 µM | 0.0475 µM | – | 32 mL/min/kg | 0.4 L/kg | 26400 ng·h/mL | 21700 ng/mL | bioavailability [2, 3]: 48% |
| C[C@@H](COCCC(=O)N1CCN2c3ncc(C(F)(F)F)cc3SCC[C@@H]2C1)Oc1cn[nH]c(=O)c1C(F)(F)F [Compound 86A] | 0.0025 µM | 0.0119 µM | – | 54 mL/min/kg | 1.4 L/kg | 20300 ng·h/mL | 7860 ng/mL | bioavailability [2, 3]: 66% |
| Cc1c2n(c3ncc(C(F)(F)F)cc13)CCN(C(=O)CCOC[C@@H]1CCN1c1cn[nH]c(=O)c1C(F)(F)F)C2 [Compound 92] | 0.000686 µM | 0.00802 µM | – | – | – | – | – | – |
| O=C(CCOC[C@@H]1CCN1c1cn[nH]c(=O)c1C(F)(F)F)N1CCN2c3ncc(C(F)(F)F)cc3C(F)(F)C[C@@H]2C1 [Compound 93A] | 0.00282 µM | 0.0156 µM | – | – | – | – | – | – |
| O=C(CCOC[C@@H]1CCN1c1cn[nH]c(=O)c1C(F)(F)F)N1CCN2c3ncc(C(F)(F)F)cc3C(F)(F)C[C@H]2C1 [Compound 93B] | 0.00209 µM | 0.0104 µM | – | – | – | – | – | – |
| CC(OCCC(=O)N1CCN2c3ncc(C(F)(F)F)cc3N(C)C(=O)C2C1)[C@@H]1CCN1c1cn[nH]c(=O)c1C(F)(F)F (some centres unmarked) [Compound 96] | 0.00327 µM | – | – | – | – | – | – | IC50 [1]: 0.0221 µM |
